Assay results published in patent US7928121B2, “5-HT7 receptor antagonists” (Laboratorios Del Dr. Esteve, S.A., priority 2004, dated 2011).
Counter-ions that a name gives are not always drawn.

Molecular target: T1, Cloned Human Serotonin Receptor, Subtype 7 (h5HT7) (Homo sapiens, UniProt P34969)
T1 construct: purchased PerkinElmer 6120512; host or cells: CHO cells (membranes coated on Basic FlashPlate SMP200)
Experiment: Radioligand binding assay, cloned human serotonin receptor subtype 7 (h5HT7) expressed in CHO cells, [125I]LSD, Flashplate
Conditions: radioligand [125I]LSD 0.82 nM, room temperature, 240 minutes, triplicate determinations, read-out: 5-HT7 IC-50
Procedure: Biological Assays Radioligand Binding
Radioligand binding assays were performed using the Cloned Human Serotonin Receptor, Subtype 7 (h5HT7), expressed in CHO cells, coated on Flashplate (Basic FlashPlate Cat.: SMP200) from PerkinElmer (Cat.: 6120512). The protocol assay was essentially the recommended protocol in the Technical Data Sheet by PerkinEmer Life and Analytical Sciences. The Mass membrane protein/well was typically 12 μg and the Receptor/well was about 9-10 fmoles. The Flashplate were let equilibrate at room temperature for one hour before the addition of the components of the assay mixture. The binding buffer was: 50 mM Tris-HCl, pH 7.4, containing 10 mM MgCl2, 0.5 mM EDTA and 0.5% BSA. The radioligand was [^125I]LSD at a final concentration of 0.82 nM. Nonspecific binding was determined with 50 μM of Clozapine. The assay volume was 25 μl. TopSeal-A were applied onto Flashplate microplates and they were incubated at room temperature for 240 minutes in darkness. The radioactivity were quantified by liquid scintillation spectrophotometry (Wallac 1450 Microbeta Trilux) with a count delay of 4 minutes prior to counting and a counting time of 30 seconds per well. Competition binding data were analyzed by using the LIGAND program (Munson and Rodbard, LIGAND: A versatile, computerized approach for characterization of ligand-binding systems. Anal. Biochem. 107: 220-239, 1980) and assays were performed in triplicate determinations for each point.

T1 sequence (P34969 whole entry): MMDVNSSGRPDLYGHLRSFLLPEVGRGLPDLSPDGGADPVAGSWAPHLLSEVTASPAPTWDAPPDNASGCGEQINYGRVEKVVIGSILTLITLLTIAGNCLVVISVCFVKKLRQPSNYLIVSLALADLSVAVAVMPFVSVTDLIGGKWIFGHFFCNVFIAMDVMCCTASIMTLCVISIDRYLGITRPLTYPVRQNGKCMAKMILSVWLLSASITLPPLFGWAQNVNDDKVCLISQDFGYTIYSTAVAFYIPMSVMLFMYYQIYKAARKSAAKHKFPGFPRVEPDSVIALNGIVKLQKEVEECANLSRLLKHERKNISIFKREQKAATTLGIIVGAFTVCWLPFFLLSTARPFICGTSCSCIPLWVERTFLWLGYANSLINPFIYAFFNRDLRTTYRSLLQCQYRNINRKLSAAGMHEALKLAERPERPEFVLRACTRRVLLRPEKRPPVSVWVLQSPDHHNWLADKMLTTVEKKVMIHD

In the case of O=S(=O)(c1cc(Cl)c(F)cc1F)N1CCC(CN2CCc3ccccc3C2)CC1 [Compound 1, 2-[1-(5-Chloro-2,4-difluoro-benzenesulfonyl)-piperidin-4-ylmethyl]-1,2,3,4-tetrahydroisoquinoline hydrochloride], the IC50 is reported as 70.2 nM.

Compound O=S(=O)(c1ccccc1Cl)N1CCC(CN2CCc3ccccc3C2)CC1 [Compound 2, 2-[1-(2-Chloro-benzenesulfonyl)-piperidin-4-ylmethyl]-1,2,3,4-tetrahydro-isoquinoline hydrochloride] has an IC50 of 28.4 ± 18.2 nM.

Compound O=S(=O)(c1cc(Cl)ccc1Cl)N1CCC(CN2CCc3ccccc3C2)CC1 [Compound 3, 2-[1-(2,5-Dichloro-benzenesulfonyl)-piperidin-4-ylmethyl]-1,2,3,4-tetrahydro-isoquinoline hydrochloride] has an IC50 of 76.4 nM.

With Cc1cccc(S(=O)(=O)N2CCC(CN3CCc4ccccc4C3)CC2)c1 [Compound 5, 2-[1-(Toluene-3-sulfonyl)-piperidin-4-ylmethyl]-1,2,3,4-tetrahydroisoquinoline hydrochloride] the IC50 was 63 nM.

O=S(=O)(c1cc(F)c(F)cc1Cl)N1CCC(CN2CCc3ccccc3C2)CC1 [Compound 6, 2-[1-(2-Chloro-4,5-difluoro-benzene-sulfonyl)-piperidin-4-ylmethyl]-1,2,3,4-tetrahydroisoquinoline hydrochloride] gave an IC50 of 18.2 ± 3.7 nM.

For Cc1cc(S(=O)(=O)N2CCC(CN3CCc4ccccc4C3)CC2)c(C)cc1Cl [Compound 16, 2-[1-(4-Chloro-2,5-dimethyl-benzenesulfonyl)-piperidin-4-ylmethyl]-1,2,3,4-tetrahydroisoquinoline hydrochloride], the IC50 was 36.1 ± 16 nM.

O=S(=O)(c1ccccc1Br)N1CCC(CN2CCc3ccccc3C2)CC1 [Compound 22, 2-[1-(2-Bromo-benzenesulfonyl)-piperidin-4-ylmethyl]-1,2,3,4-tetrahydro-isoquinoline hydrochloride] was tested, and the IC50 was 16.8 ± 8 nM.

Compound O=S(=O)(c1cccc2ccccc12)N1CCC(CN2CCc3ccccc3C2)CC1 [Compound 23, 2-[1-(Naphtalene-1-sulfonyl)-piperidin-4-ylmethyl]-1,2,3,4-tetrahydroisoquinoline hydrochloride] has an IC50 of 83.4 nM.

COc1cc2c(cc1OC)CN(CC1CCN(S(=O)(=O)c3ccccc3Cl)CC1)CC2 [Compound 77, 2-[1-(2-Chlorobenzene-sulfonyl)-piperidin-4-ylmethyl]-6,7-dimethoxy-1,2,3,4-tetrahydroisoquinoline hydrochloride] was tested, and the IC50 was 41.8 nM.

COc1cc2c(cc1OC)CN(CC1CCN(S(=O)(=O)c3cc(Cl)ccc3Cl)CC1)CC2 [Compound 85, 2-[1-(2,5-Dichloro-benzenesulfonyl)-piperidin-4-ylmethyl]-6,7-dimethoxy-1,2,3,4-tetrahydro-isoquinoline hydrochloride] was tested, and the IC50 was 60.7 nM.
